Assay results as given in US7473688B2, “Indolobenzazepine HCV NS5B inhibitors” (Bristol-Myers Squibb Company, priority 2005, dated 2009).

biological target: T1, HCV NS5B (Hepatitis C virus genotype 1b, UniProt Q9WMX2); assay: HCV NS5B RdRp enzyme assay (preincubation protocol); type: biochemical; details: Table 1a, read-out: IC50*
T1 construct: The protein was expressed with an 18 amino acid C-terminal truncation to enhance the solubility; made in house; host or cells: E. coli BL21 (DE3), pET21a
T1 sequence (Q9WMX2 2420-2992): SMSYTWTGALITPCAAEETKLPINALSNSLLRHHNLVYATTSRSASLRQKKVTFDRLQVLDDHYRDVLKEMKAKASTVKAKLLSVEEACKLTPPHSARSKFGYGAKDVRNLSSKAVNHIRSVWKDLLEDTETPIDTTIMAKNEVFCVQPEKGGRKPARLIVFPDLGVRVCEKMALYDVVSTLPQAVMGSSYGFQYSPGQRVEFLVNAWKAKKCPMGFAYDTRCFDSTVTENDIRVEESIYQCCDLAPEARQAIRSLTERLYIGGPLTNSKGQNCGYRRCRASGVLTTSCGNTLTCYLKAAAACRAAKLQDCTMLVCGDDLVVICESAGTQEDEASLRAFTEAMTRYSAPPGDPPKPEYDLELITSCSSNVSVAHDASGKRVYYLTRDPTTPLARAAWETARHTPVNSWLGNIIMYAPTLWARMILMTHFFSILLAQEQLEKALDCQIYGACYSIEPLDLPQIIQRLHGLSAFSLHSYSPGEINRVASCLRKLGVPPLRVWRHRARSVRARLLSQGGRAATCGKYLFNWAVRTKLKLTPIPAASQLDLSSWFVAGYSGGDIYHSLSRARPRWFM
Description: HCV NS5B RdRp cloning, expression, and purification. The cDNA encoding the NS5B protein of HCV, genotype 1b, was cloned into the pET21a expression vector. The protein was expressed with an 18 amino acid C-terminal truncation to enhance the solubility. The E. coli competent cell line BL21 (DE3) was used for expression of the protein. Cultures were grown at 37° C. for ˜4 hours until the cultures reached an optical density of 2.0 at 600 nm. The cultures were cooled to 20° C. and induced with 1 mM IPTG. Fresh ampicillin was added to a final concentration of 50 μg/ml and the cells were grown overnight at 20° C.
Cell pellets (3L) were lysed for purification to yield 15-24 mgs of purified NS5B. The lysis buffer consisted of 20 mM Tris-HCl, pH 7.4, 500 mM NaCl, 0.5% triton X-100, 1 mM DTT, 1 mM EDTA, 20% glycerol, 0.5 mg/ml lysozyme, 10 mM MgCl2, 15 ug/ml deoxyribonuclease I, and Complete TM protease inhibitor tablets (Roche). After addition of the lysis buffer, frozen cell pellets were resuspended using a tissue homogenizer. To reduce the viscosity of the sample, aliquots of the lysate were sonicated on ice using a microtip attached to a Branson sonicator. The sonicated lysate was centrifuged at 100,000×g for 1 hr at 4° C. and filtered through a 0.2 μm filter unit (Corning).
The protein was purified using three sequential chromatography steps: Heparin sepharose CL-6B, polyU sepharose 4B, and Hitrap SP sepharose (Pharmacia). The chromatography buffers were identical to the lysis buffer but contained no lysozyme, deoxyribonuclease I, MgCl2 or protease inhibitor and the NaCl concentration of the buffer was adjusted according to the requirements for charging the protein onto the column. Each column was eluted with a NaCl gradient which varied in length from 5-50 column volumes depending on the column type. After the final chromatography step, the resulting purity of the enzyme is >90% based on SDS-PAGE analysis. The enzyme was aliquoted and stored at −80° C.
Standard HCV NS5B RdRp enzyme assay. HCV RdRp genotype 1b assays were run in a final volume of 60 μl in 96 well plates (Costar 3912). The assay buffer is composed of 20 mM Hepes, pH 7.5, 2.5 mM KCl, 2.5 mM MgCl2, 1 mM DTT, 1.6 U RNAse inhibitor (Promega N2515), 0.1 mg/ml BSA (Promega R3961), and 2% glycerol. All compounds were serially diluted (3-fold) in DMSO and diluted further in water such that the final concentration of DMSO in the assay was 2%. HCV RdRp genotype 1b enzyme was used at a final concentration of 28 nM. A polyA template was used at 6 nM, and a biotinylated oligo-dT12 primer was used at 180 nM final concentration. Template was obtained commercially (Amersham 27-4110). Biotinylated primer was prepared by Sigma Genosys. 3H-UTP was used at 0.6 μCi (0.29 μM total UTP). Reactions were initiated by the addition of enzyme, incubated at 30° C. for 60 min, and stopped by adding […] of 50 mM EDTA containing SPA beads (4 μg/μl, Amersham RPNQ 0007). Plates were read on a Packard Top Count NXT after >1 hr incubation at room temperature.
Modified HCV NS5B RdRp enzyme assay. A modified enzyme assay was performed essentially as described for the standard enzyme assay except for the following: The biotinylated oligo dT12 primer was precaptured on streptavidin-coated SPA beads by mixing primer and beads in assay buffer and incubating at room temperature for one hour. Unbound primer was removed after centrifugation. The primer-bound beads were resuspended in 20 mM Hepes buffer, pH 7.5 and used in the assay at final concentrations of […] primer and 0.67 μg/μl beads. Order of addition in the assay: Enzyme (14 nM) was added to diluted compound followed by the addition of a mixture of template (0.2 nM), 3H-UTP (0.6 μCi, 0.29 μM), and primer-bound beads, to initiate the reaction; concentrations given are final. Reactions were allowed to proceed for 4 hours at 30° C.
IC50 values for compounds were determined using seven different [I]. […]

For CNC(=O)N1CCN(C(=O)C2=Cc3ccccc3-c3c(C4CCCCC4)c4ccc(C(=O)NS(=O)(=O)N(C)C)cc4n3C2)CC1, which IC50 is on record?
Its IC50 is 10 to 1000 nM.

Which IC50 does the source give for COC(=O)c1ccc2c(C3CCCCC3)c3n(c2c1)CC(NC(=O)C1CCOCC1)Cc1ccccc1-3 (stereo not drawn) here?
Its IC50 is > 1000 nM.

Which IC50 does the source give for O=C(O)c1ccc2c(C3CCCCC3)c3n(c2c1)CC(NC(=O)C1CCOCC1)Cc1ccccc1-3 (stereo not drawn) here?
Its IC50 is 10 to 1000 nM.

Which IC50 does the source give for O=C(NCc1nc2ccccc2[nH]1)c1ccc2c(C3CCCCC3)c3n(c2c1)CC(C(=O)N1CCC(N2CCOCC2)CC1)=Cc1ccccc1-3 here?
Its IC50 is 10 to 1000 nM.

How did the IC50 turn out when COC(=O)[C@@H]1C[C@@H](O)CN1C(=O)C1=Cc2cc(OC)ccc2-c2c(C3CCCCC3)c3ccc(C(=O)NS(=O)(=O)N(C)C)cc3n2C1 was run?
Its IC50 is 10 to 1000 nM.

Which IC50 does the source give for COc1ccc2c(c1)C=C(C(=O)N1CCN(C(C)=O)CC1)Cn1c-2c(C2CCCCC2)c2ccc(C(=O)NS(=O)(=O)N(C)C)cc21 here?
Its IC50 is 10 to 1000 nM.

How did the IC50 turn out when COc1ccc2c(c1)C=C(C(=O)N1C[C@H](O)C[C@H]1C(=O)Nc1ccc3c(C)cc(=O)oc3c1)Cn1c-2c(C2CCCCC2)c2ccc(C(=O)NS(=O)(=O)N(C)C)cc21 was run?
Its IC50 is 10 to 1000 nM.

How did the IC50 turn out when COc1ccc2c(c1)CC(N(C)C(=O)N1C[C@@H](C)O[C@@H](C)C1)Cn1c-2c(C2CCCCC2)c2ccc(C(=O)O)cc21 (stereo partly drawn) was run?
Its IC50 is 10 to 1000 nM.

With COCCNC(=O)CN(C)C(=O)C1Cc2cc(OC)ccc2-c2c(C3CCCCC3)c3ccc(C(=O)NS(=O)(=O)N(C)C)cc3n2C1 (stereo not drawn) as the compound, how does the IC50 read?
Its IC50 is 10 to 1000 nM.

CCN(CC)C(=O)CN(C)C(=O)C1Cc2cc(OC)ccc2-c2c(C3CCCCC3)c3ccc(C(=O)NS(=O)(=O)N(C)C)cc3n2C1 (stereo not drawn) was tested. Which IC50 did it give?
Its IC50 is 10 to 1000 nM.

COc1ccc2c(c1)CC(N(C)C(=O)N1C[C@@H](C)O[C@@H](C)C1)Cn1c-2c(C2CCCCC2)c2ccc(C(=O)NS(=O)(=O)N(C)C)cc21 (stereo partly drawn) was tested. Which IC50 did it give?
Its IC50 is 10 to 1000 nM.

With COC1CCCC(C(=O)N(C)C2Cc3ccccc3-c3c(C4CCCCC4)c4ccc(C(=O)NS(=O)(=O)N(C)C)cc4n3C2)C1 (stereo not drawn) as the compound, how does the IC50 read?
The IC50 was 10 to 1000 nM.

For COC1CCCC(C(=O)N(C)C2Cc3ccccc3-c3c(C4CCCCC4)c4ccc(C(=O)O)cc4n3C2)C1 (stereo not drawn), which IC50 is on record?
The IC50 was 10 to 1000 nM.

COC(=O)c1ccc2c(C3CCCCC3)c3n(c2c1)CC(NC(=O)C1CCOCC1)Cc1cc(OC)ccc1-3 (stereo not drawn) was tested. Which IC50 did it give?
The IC50 was 10 to 1000 nM.

With COc1ccc2c(c1)C=C(C(=O)N1CCN(C(=O)CN)CC1)Cn1c-2c(C2CCCCC2)c2ccc(C(=O)NS(=O)(=O)N(C)C)cc21 as the compound, how does the IC50 read?
The IC50 was < 20 nM.

With COc1ccc2c(c1)CC(C(=O)N1CCN(C(=O)N(C)C)CC1)Cn1c-2c(C2CCCCC2)c2ccc(C(=O)NS(=O)(=O)N(C)C)cc21 (stereo not drawn) as the compound, how does the IC50 read?
Its IC50 is 10 to 1000 nM.

How did the IC50 turn out when COC(=O)c1ccc2c(C3CCCCC3)c3n(c2c1)CC(C(=O)N1C[C@@H](C)N(C)[C@@H](C)C1)=Cc1cc(F)ccc1-3 was run?
Its IC50 is 10 to 1000 nM.

Which IC50 does the source give for COc1ccc2c(c1)CC(N(C)C(=O)C1CCOCC1)Cn1c-2c(C2CCCCC2)c2ccc(C(=O)NS(=O)(=O)N(C)C)cc21 (stereo not drawn) here?
Its IC50 is 10 to 1000 nM.

How did the IC50 turn out when COc1ccc2c(c1)CC(N(C)C(=O)C1CCOCC1)Cn1c-2c(C2CCCCC2)c2ccc(C(=O)O)cc21 (stereo not drawn) was run?
The IC50 was < 20 nM.

CC(=O)NC1Cc2ccccc2-c2c(C3CCCCC3)c3ccc(C(=O)NS(=O)(=O)N(C)C)cc3n2C1 (stereo not drawn) was tested. Which IC50 did it give?
The IC50 was 10 to 1000 nM.

COc1ccc2c(c1)C=C(C(=O)N1CCC(C(=O)N(C)C)CC1)Cn1c-2c(C2CCCCC2)c2ccc(C(=O)NS(=O)(=O)N3CCN(C)CC3)cc21 was tested. Which IC50 did it give?
Its IC50 is 10 to 1000 nM.

How did the IC50 turn out when C[C@@H]1CN(C(=O)C2=Cc3ccccc3-c3c(C4CCCCC4)c4ccc(C(=O)NS(=O)(=O)OCC(C)(C)C)cc4n3C2)C[C@H](C)O1 was run?
The IC50 was 10 to 1000 nM.

With C[C@@H]1CN(C(=O)C2=Cc3cc(F)ccc3-c3c(C4CCCCC4)c4ccc(C(=O)O)cc4n3C2)C[C@H](C)N1C as the compound, how does the IC50 read?
Its IC50 is 10 to 1000 nM.

With COc1ccc2c(c1)C=C(C(=O)N1C[C@@H](C)N(C)[C@@H](C)C1)Cn1c-2c(C2CCCCC2)c2ccc(C(=O)NS(=O)(=O)N(C)C)cc21 as the compound, how does the IC50 read?
The IC50 was 10 to 1000 nM.

How did the IC50 turn out when COc1ccc2c(c1)C=C(C(=O)N1CCN(CC(F)(F)F)CC1)Cn1c-2c(C2CCCCC2)c2ccc(C(=O)NS(=O)(=O)N3CCOCC3)cc21 was run?
The IC50 was 10 to 1000 nM.

How did the IC50 turn out when COC(=O)c1ccc2c(C3CCCCC3)c3n(c2c1)CC(C(=O)NCc1ncco1)Cc1cc(OC)ccc1-3 (stereo not drawn) was run?
Its IC50 is 10 to 1000 nM.

With O=C(NS(=O)(=O)N1CCOCC1)c1ccc2c(C3CCCCC3)c3n(c2c1)CC(C(=O)N1CCN(CC(F)(F)F)CC1)=Cc1ccccc1-3 as the compound, how does the IC50 read?
Its IC50 is 10 to 1000 nM.
